Measurements reported in US12628827B2, “Isoxazoline compounds and their use as pest control agents” (PI INDUSTRIES LIMITED, priority 2020, dated 2026).

Experiments:
Type in all cases: in vivo
[1] = tested on: Amrasca biguttulla biguttulla; assay: Amrasca biguttulla biguttulla leaf dip method; conditions: Solanum melongena, foliar, brinjal leaves, second instar nymphs, 72 h after release, dead + moribund vs untreated control, read-out: percent mortality
Experimental: (§1) The leaf dip method was used for testing, wherein the required quantity of the compound was weighed and dissolved in a tube containing solvent solution. The tube was put on a vortex at 2000 rpm for 90 min for proper mixing, then, diluted with 0.01% Triton-X solution to the desired test concentration. Brinjal leaves were dipped in the compound solution for 10 seconds, shade dried for 20 min and then placed, with the abaxial side of the leaf up, in single cells of a bio-assay tray containing 4 mL of a solidified 1% agar-agar solution. Known numbers of second instar nymphs were released into the cell with the treated leaf and the cell was covered with a perforated lid for better aeration. The trays were kept in a plant growth chamber at a temperature of 25° C. and a relative humidity of 70%. Observations on dead, moribund and alive nymphs were recorded 72 h after the release. Percent mortality was calculated by combining dead and moribund nymphs and comparing the result with the one of the untreated control. The compounds 1, 2 and 40 recorded ≥70 percent mortality @ 300 PPM.

Tetranychus urticae = Tetranychus urticae leaf dip method; conditions: foliar, French bean leaves, third instar nymphs, 72 h after release, dead + moribund vs untreated control, read-out: percent mortality
Experimental: The leaf dip method was used for testing, wherein the required quantity of the compound was weighed and dissolved in a tube containing solvent solution. The tube was put on a vortex at 2000 rpm for 90 min for proper mixing, then, diluted with 0.01% Triton-X solution to the desired test concentration. French bean leaves were dipped in the compound solution for 10 seconds, shade dried for 20 min and then placed, with the abaxial side of the leaf up, in single cells of a bio-assay tray containing 4 mL of a solidified 1% agar-agar solution. Known numbers of third instar nymphs were released into the cell with the treated leaf and the cell was covered with a perforated lid for better aeration. The trays were kept in a plant growth chamber at a temperature of 25° C. and a relative humidity of 70%. Observations on dead, moribund and alive nymphs were recorded 72 h after the release. Percent mortality was calculated by combining dead and moribund nymphs and comparing the result with the one of the untreated control. The compounds 1 2 26 38 40 46 47 48 and 49 recorded ≥70 percent mortality @ 300 PPM.

Scirtothrips dorsalis = Scirtothrips dorsalis leaf dip method; conditions: foliar, capsicum leaves, second instar nymphs, 72 h after release, dead + moribund vs untreated control, read-out: percent mortality
Experimental: as §1, with “Capsicum” for “Brinjal”

Plutella xylostella = Plutella xylostella leaf dip method; conditions: foliar, cabbage leaves, second instar larvae, 72 h after release, dead + moribund vs untreated control, read-out: per cent mortality
Experimental: The leaf dip method was used for testing, wherein the required quantity of the compound was weighed and dissolved in a tube containing solvent solution. The tube was put on a vortex at 2000 rpm for 90 min for proper mixing, then, diluted with a 0.01% Triton-X solution to the desired test concentration. Cabbage leaves were dipped in the compound solution for 10 seconds, shade dried for 20 min and then transferred into the cells of bioassay trays. A single second instar larva was released into each cell and the tray was covered with a lid. The bio-assay trays were then kept under laboratory conditions at a temperature of 25° C. and a relative humidity of 70%. Observations on dead, moribund and alive larvae were recorded 72 h after the release. Percent mortality was calculated by combining dead and moribund larvae and comparing the result to the one of the untreated control. The compounds, […]

| Compound | mortality at 300 ppm [1] [%] | mortality at 300 ppm (Tetranychus urticae) [%] | mortality at 300 ppm (Scirtothrips dorsalis) [%] | mortality at 300 ppm (Plutella xylostella) [%] |
| --- | --- | --- | --- | --- |
| Cc1cc(C2=NOC(c3cc(Cl)c(F)c(Cl)c3)(C(F)(F)F)C2)ccc1C(=O)Nc1nc(C(F)(F)F)n(C)n1 (stereo not shown) [Compound 1, 4-(5-(3,5-dichloro-4-fluorophenyl)-5-(trifluoromethyl)-4,5-dihydroisoxazol-3-yl)-2-methyl-N-(1-methyl-5-(trifluoromethyl)-1H-1,2,4-triazol-3-yl)benzamide] | ≥ 70 | ≥ 70 | ≥ 70 | – |
| Cc1cc(C2=NOC(c3cc(Cl)cc(Cl)c3)(C(F)(F)F)C2)ccc1C(=O)Nc1nc(C(F)(F)F)n(C)n1 (stereo not shown) [Compound 2, 4-(5-(3,5-dichlorophenyl)-5-(trifluoromethyl)-4,5-dihydroisoxazol-3-yl)-2-methyl-N-(1-methyl-5-(trifluoromethyl)-1H-1,2,4-triazol-3-yl)benzamide] | ≥ 70 | ≥ 70 | ≥ 70 | – |
| Cc1cc(C2=NOC(c3cc(Cl)c(F)c(Cl)c3)(C(F)(F)F)C2)ccc1C(=O)Nc1nc(C(C)C)n(C)n1 (stereo not shown) [Compound 26, 4-(5-(3,5-dichloro-4-fluorophenyl)-5-(trifluoromethyl)-4,5-dihydroisoxazol-3-yl)-N-(5-isopropyl-1-methyl-1H-1,2,4-triazol-3-yl)-2-methylbenzamide] | – | ≥ 70 | – | – |
| Cc1cc(C2=NOC(c3cc(Cl)c(F)c(Cl)c3)(C(F)(F)F)C2)ccc1C(=O)N(CC(F)(F)F)c1nc(C(C)C)n(CC(F)(F)F)n1 (stereo not shown) [Compound 31, 4-(5-(3,5-dichloro-4-fluorophenyl)-5-(trifluoromethyl)-4,5-dihydroisoxazol-3-yl)-N-(5-isopropyl-1-(2,2,2-trifluoroethyl)-1H-1,2,4-triazol-3-yl)-2-methyl-N-(2,2,2-trifluoroethyl)benzamide] | – | – | – | ≥ 70 |
| CCc1nc(NC(=O)c2ccc(C3=NOC(c4cc(Cl)cc(Cl)c4)(C(F)(F)F)C3)cc2C)nn1CC (stereo not shown) [Compound 38, 4-(5-(3,5-dichlorophenyl)-5-(trifluoromethyl)-4,5-dihydroisoxazol-3-yl)-N-(1,5-diethyl-1H-1,2,4-triazol-3-yl)-2-methylbenzamide] | – | ≥ 70 | – | – |
| Cc1cc(C2=NOC(c3cc(Cl)c(F)c(Cl)c3)(C(F)(F)F)C2)ccc1C(=O)N(C)c1nc(C(F)(F)F)n(C)n1 (stereo not shown) [Compound 40, 4-(5-(3,5-dichloro-4-fluorophenyl)-5-(trifluoromethyl)-4,5-dihydroisoxazol-3-yl)-N,2-dimethyl-N-(1-methyl-5-(trifluoromethyl)-1H-1,2,4-triazol-3-yl)benzamide] | ≥ 70 | ≥ 70 | ≥ 70 | – |
| Cc1cc(C2=NOC(c3cc(Cl)c(F)c(Cl)c3)(C(F)(F)F)C2)ccc1C(=O)N(C)c1nc(C(C)(F)F)n(C)n1 (stereo not shown) [Compound 46, 4-(5-(3,5-dichloro-4-fluorophenyl)-5-(trifluoromethyl)-4,5-dihydroisoxazol-3-yl)-N-(5-(1,1-difluoroethyl)-1-methyl-1H-1,2,4-triazol-3-yl)-N,2-dimethylbenzamide] | – | ≥ 70 | – | – |
| Cc1cc(C2=NOC(c3cc(Cl)c(F)c(Cl)c3)(C(F)(F)F)C2)ccc1C(=O)Nc1nc(C(C)(F)F)n(C)n1 (stereo not shown) [Compound 47, 4-(5-(3,5-dichloro-4-fluorophenyl)-5-(trifluoromethyl)-4,5-dihydroisoxazol-3-yl)-N-(5-(1,1-difluoroethyl)-1-methyl-1H-1,2,4-triazol-3-yl)-2-methylbenzamide] | – | ≥ 70 | – | – |
| Cc1cc(C2=NOC(c3cc(Cl)cc(Cl)c3)(C(F)(F)F)C2)ccc1C(=O)Nc1nc(C(C)(F)F)n(C)n1 (stereo not shown) [Compound 48, 4-(5-(3,5-dichlorophenyl)-5-(trifluoromethyl)-4,5-dihydroisoxazol-3-yl)-N-(5-(1,1-difluoroethyl)-1-methyl-1H-1,2,4-triazol-3-yl)-2-methylbenzamide] | – | ≥ 70 | – | – |
| Cc1cc(C2=NOC(c3cc(Cl)cc(Cl)c3)(C(F)(F)F)C2)ccc1C(=O)N(C)c1nc(C(C)(F)F)n(C)n1 (stereo not shown) [Compound 49, 4-(5-(3,5-dichlorophenyl)-5-(trifluoromethyl)-4,5-dihydroisoxazol-3-yl)-N-(5-(1,1-difluoroethyl)-1-methyl-1H-1,2,4-triazol-3-yl)-N,2-dimethylbenzamide] | – | ≥ 70 | – | – |
| Cc1cc(C2=NOC(c3cc(Cl)cc(Cl)c3)(C(F)(F)F)C2)ccc1C(=O)N(CC(F)(F)F)c1nc(CCC(F)(F)F)n(CC(F)(F)F)n1 (stereo not shown) [Compound 83, 4-(5-(3,5-dichlorophenyl)-5-(trifluoromethyl)-4,5-dihydroisoxazol-3-yl)-2-methyl-N-(2,2,2-trifluoroethyl)-N-(1-(2,2,2-trifluoroethyl)-5-(3,3,3-trifluoropropyl)-1H-1,2,4-triazol-3-yl)benzamide] | – | – | – | ≥ 70 |
| Cc1cc(C2=NOC(c3cc(Cl)cc(Cl)c3)(C(F)(F)F)C2)ccc1C(=O)N(CC(F)F)c1nc(CCC(F)(F)F)n(CC(F)F)n1 (stereo not shown) [Compound 87, 4-(5-(3,5-dichlorophenyl)-5-(trifluoromethyl)-4,5-dihydroisoxazol-3-yl)-N-(2,2-difluoroethyl)-N-(1-(2,2-difluoroethyl)-5-(3,3,3-trifluoropropyl)-1H-1,2,4-triazol-3-yl)-2-methylbenzamide] | – | – | – | ≥ 70 |
| Cc1cc(C2=NOC(c3cc(Cl)c(F)c(Cl)c3)(C(F)(F)F)C2)ccc1C(=O)N(CC(F)(F)F)c1nc(CCC(F)(F)F)n(CC(F)(F)F)n1 (stereo not shown) [Compound 111, 4-(5-(3,5-dichloro-4-fluorophenyl)-5-(trifluoromethyl)-4,5-dihydroisoxazol-3-yl)-2-methyl-N-(2,2,2-trifluoroethyl)-N-(1-(2,2,2-trifluoroethyl)-5-(3,3,3-trifluoropropyl)-1H-1,2,4-triazol-3-yl)benzamide] | – | – | – | ≥ 70 |
